Measurements taken from patent US11479531B2, “Deoxyuridine triphosphatase inhibitors” (University of Southern California, priority 2015, dated 2022).

Assays:
[1] = test system: colorectal (HCT116 and SW620) cell line models; assay: MTS growth inhibition assay; type: cell-based; conditions: increasing concentrations of 5-FU between 0 and 100 μmol/L; both colorectal cancer cell lines (HCT116, SW620)
Protocol: The Cell Titer AQueous MTS assay (Promega) is carried out according to the manufacturers guidelines. […] The combination effect is determined by the combination index (CI) method utilizing Calcusyn software (Biosoft, Ferguson, Mo.). […] CI values <1, synergism; 1-1.2, additive and >1.2, antagonism.
Test compounds are evaluated for their antitumor activity in colorectal cancer cells using the MTS growth inhibition assay. HCT116 and SW620 cells are exposed to increasing concentrations of each agent for 72 hours and growth inhibition is directly compared to vehicle-treated controls. The NSCLC cell lines A549 and H1299 are exposed to increasing concentrations of each agent for 72 hours and growth inhibition is directly compared to vehicle-treated controls.
Simultaneous treatment with increasing concentrations of 5-FU and a test compound at fixed concentrations of 25 μmol/L is determined.

[2] = test system: colorectal (HCT116), breast (MCF-7) and non-small cell lung (H1299, A549, H358 and H460) cell line models; assay: Colony forming assay; type: cell-based; conditions: increasing concentrations of FUdR between 0.5 and 2.5 μmol/L; all cell lines evaluated
Protocol: Colony forming assay showing the ability of colon (SW620, HCT116), non-small cell lung (A549, H460, H1299 and H358) and breast (MCF7) cancer cells to survive and proliferate following transient 24 hour exposure to test compounds, FUdR and combinations are determined. Specifically, cells are seeded at densities between 50 and 100 cells/well in 24-well plates. […] After 24 hours, drug is removed, cells are rinsed and allowed to outgrow for 10-14 days. At the conclusion of the outgrowth, cells are fixed in 60% ice cold methanol and stained with 0.1% crystal violet, scanned and counted. Data is presented as percentage of untreated controls (mean±SD). Fraction affected and combination indexes are calculated according to the method of Chou and Talalay where <1 is indicative of a synergistic drug interaction.
Colony forming assays are performed to evaluate the effectiveness of test compounds alone and in combination with the fluoropyrimidine thymidylate synthase (TS) inhibitor fluorodeoxyuridine (FUdR) at reducing cancer cell viability in colorectal (HCT116), breast (MCF-7) and non-small cell lung (H1299, A549, H358 and H460) cell line models.

Structure (SMILES) | growth inhibition [1] | colonies formed [2]
O=c1[nH]cc(F)c(=O)[nH]1 [5-FU, 5-fluorouracil] | dose-dependent increases in growth inhibition | 
O=c1[nH]c(=O)n([C@H]2C[C@H](O)[C@@H](CO)O2)cc1F [FUdR, fluorodeoxyuridine] |  | dose-dependent decreases in colonies formed
